Test results published in patent US20260049078A1, “DIFLUORO- AND TRIFLUORO-ACETYL HYDRAZIDES AS SELECTIVE HDAC6 INHIBITORS” (ITALFARMACO S.P.A., priority 2022, published 2026).

Tests used:
recombinant human HDAC6 = recombinant human HDAC6 (Homo sapiens (Human), UniProt Q9UBN7); experiment: Enzyme inhibitory activity assay on HDAC6; type: biochemical; details: 30 minutes preincubation at 25° C.
Method: (§1) For each test compound, 100× concentrated DMSO solutions at 8 doses were prepared and then diluted in assay buffer (25 mM Tris-HCl, pH 8, 130 mM NaCl, 0.05% Tween-20, 10% Glycerol) to obtain 5× concentrated solutions in relation to the final concentrations (typical final concentration range—6.4-200000 nM or 0.18-50000 nM, final DMSO content—1%). Then 10 μL solution of each test compound concentration were placed on a 96-well plate in triplicate and 15 μL of 3.33× concentrated enzyme solution in the assay buffer containing 3.33× concentrated BSA (final BSA concentration 1 mg/mL) and, in case of HDAC6, 3.33× concentrated TCEP (final TCEP concentration—200 μM) were added to each well. After a period of preincubation at 25° C. (30 minutes for HDAC6 and 120 minutes for HDAC1), 25 μL of solution containing the substrate were added. As substrate, FLUOR DE LYS® deacetylase substrate (Enzo Life Sciences, cat: BML-KI104, FdL), FLUOR DE LYS®-Green substrate (Enzo Life Sciences, cat: BML-KI572, FdL_G) or Boc-Lys(Tfa)-AMC (Bachem, cat: 4060676.005, Tfal)—2× concentrated solution in assay buffer were used. Following a reaction period (30 minutes at 25° C.), 50 μL of the development solution consisting of concentrate FLUOR DE LYS® developer I (Enzo Life Sciences, ca: BML-KI105), diluted 200 times in buffer (50 mM Tris-HCl, pH 8, 137 mM NaCl, 2.7 mM KCl, 1 mM MgCl2) plus 2 μM TSA was added and, after 25 minutes at room temperature in the dark, using the Victor 1420 Multilabel Counter Perkin Elmer Wallac instrument, the fluorescence reading was carried out (excitation/emission: 485/535 nM—Fluor de Lys Green, 355/460 nM—Tfal, Fluor de Lys).
(§2) Enzymatic activity on recombinant human HDAC6 and HDAC1 was evaluated (Table 2) for each synthesized compound.

recombinant human HDAC1 = recombinant human HDAC1 (Homo sapiens (Human), UniProt Q13547); experiment: Enzyme inhibitory activity assay on HDAC1; type: biochemical; details: 120 minutes preincubation at 25° C.
Method: as §1, §2

HDAC6 = experiment: Kinetic of prodrug disappearing when incubated with HDAC6 (LC-HRMS); type: biochemical; details: HDAC6 1 μM, 5 μM compound, 25° C.; for half-life at 5 µM: HDAC6 enzyme in assay buffer, read-out: T1/2 of prodrug disappearing
Method: The LC-HRMS analysis was carried out using a Vanquish Flex UHPLC (Thermo Fisher Scientific) and a high-resolution mass spectrometer Orbitrap QExactive Focus (Thermo Fisher Scientific), equipped with a Heated Electrospray Ionization, operated in positive mode. A Full Scan analysis was set in the m/z range 50-500 amu. A XSelect HSS T3 50×2.1 mm, 2.5 μm chromatographic column (Waters) was used. Mobile phase A consisted of 0.1% formic acid in water and mobile phase B in 0.1% formic acid in acetonitrile. The flow rate was set to 0.5 mL/min, with a gradient program from 3 to 20% B in 3 minutes.

[1] = system: murine neuroblastoma N2a cell lines; experiment: In vitro α-tubulin acetylation in N2a cell line; type: cell-based; details: N2a cells, 16 hours; dose of the tabulated value not stated (tested at 10 μM, 1 μM and 0.1 μM)
Method: The in vitro α-tubulin acetylation was evaluated on murine neuroblastoma N2a cell lines.
Cells were maintained in Eagle's Minimum Essential Medium (ATCC, cat: 30-2003) supplemented with 10% fetal bovine serum—FBS (Gibco, cat: 10270-106).
Cells were plated in 12-well plates (Costar, cat: 3512) at the density of 6×10^4 cells/cm^2, respectively. The test compounds were prepared as 20× concentrated medium solutions in respect to the final concentrations. The cells were treated the following day. The compounds were tested at 3 doses: 10 μM, 1 μM and 0.1 μM. The final DMSO content was set as 0.5%. The cells were incubated with the compounds at 37° C. for 16 hours.
At the end of the incubation period, the cells were harvested and centrifuged for 5 minutes at 200×g and washed with 0.9% NaCl at 4° C. The resulting pellet was treated for 30 minutes at 4° C. with 100 μl Complete Lysis-M buffer containing protease inhibitors (Complete Lysis-M Roche+Complete Tablets, Mini Easypack, cat: 4719956001) and phosphatase inhibitor cocktails (PhosStop Easypack, Roche, cat: 4906837001) and then centrifuged 10 minutes at 18213×g. The protein concentration in each supernatant was determined using BCA Protein Assay Kit (Pierce, cat: 23227). The samples were diluted in PBS 1× to obtain 2 μg/ml concentration and coated in MaxiSorp 96-well plates (Nunc, cat: 442404). The plates were incubated overnight at room temperature, then washed twice with Wash Buffer (PBS 1×+0.005% tween 20) and saturated for 1 hour at room temperature with 300 μL of 1×PBS containing 10% FBS. After washing twice with Wash Buffer, the plates were incubated for 2 hours at room temperature in the presence of 100 μl/well either anti-acetylated-α-tubulin antibody (Monoclonal Anti-Tubulin, Acetylated antibody produced in mouse, Sigma-Aldrich, cat: T6793) or total anti-α-tubulin antibody (Monoclonal Anti-α-Tubulin produced in mouse, Sigma-Aldrich, cat: T6074) diluted 1:1000 in 1×PBS containing 10% FBS. Following 5 washing cycles with Wash Buffer, the secondary antibody conjugated with the enzyme HRP (Goat anti-Mouse IgG, IgM, IgA (H+L), stock concentration 0.5 mg/ml, Thermo Fisher Scientific, cat: A10668), diluted 1:1000 in 1×PBS+10% FBS was added at the volume of 100 μl/well. After two hours of incubation at room temperature the plates were washed 4 times with Wash Buffer, then 100 μl/well of TMB substrate (TMB substrate kit, Thermo Fisher Scientific, cat: 34021) was added for 15 minutes at room temperature in the dark. The reaction was stopped by adding 50 μl of 2M H2SO4. The plates were read in BioTek Synergy H1 multimode microplate reader at a wavelength of 450 nm.
The measured absorbance was corrected by subtracting the mean of blank values (samples without the primary antibody). The absorbance ratios of acetyl to total tubulin assays were calculated and normalized to the reference compound (positive control) 4 parameter logistic curve, where 100% is the fitted top of the curve and 0% is DMSO control (protein extract obtained from non-treated cells). The results are expressed as fold increase compared to the control (DMSO).

Chain of recombinant human HDAC1 (Q13547 whole entry): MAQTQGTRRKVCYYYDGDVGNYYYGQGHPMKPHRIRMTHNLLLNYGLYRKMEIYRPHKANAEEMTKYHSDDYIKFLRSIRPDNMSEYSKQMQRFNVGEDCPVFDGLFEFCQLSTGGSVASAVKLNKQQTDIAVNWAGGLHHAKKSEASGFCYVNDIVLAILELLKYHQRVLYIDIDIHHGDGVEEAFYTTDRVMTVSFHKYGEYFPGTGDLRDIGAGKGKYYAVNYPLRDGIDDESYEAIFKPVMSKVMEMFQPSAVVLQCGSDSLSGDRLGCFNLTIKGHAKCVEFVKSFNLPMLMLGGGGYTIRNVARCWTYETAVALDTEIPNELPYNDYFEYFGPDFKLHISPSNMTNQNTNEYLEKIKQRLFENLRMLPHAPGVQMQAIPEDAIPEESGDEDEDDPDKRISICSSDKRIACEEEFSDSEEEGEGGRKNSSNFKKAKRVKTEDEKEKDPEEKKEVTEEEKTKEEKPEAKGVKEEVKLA
Chain of recombinant human HDAC6 (Q9UBN7 whole entry): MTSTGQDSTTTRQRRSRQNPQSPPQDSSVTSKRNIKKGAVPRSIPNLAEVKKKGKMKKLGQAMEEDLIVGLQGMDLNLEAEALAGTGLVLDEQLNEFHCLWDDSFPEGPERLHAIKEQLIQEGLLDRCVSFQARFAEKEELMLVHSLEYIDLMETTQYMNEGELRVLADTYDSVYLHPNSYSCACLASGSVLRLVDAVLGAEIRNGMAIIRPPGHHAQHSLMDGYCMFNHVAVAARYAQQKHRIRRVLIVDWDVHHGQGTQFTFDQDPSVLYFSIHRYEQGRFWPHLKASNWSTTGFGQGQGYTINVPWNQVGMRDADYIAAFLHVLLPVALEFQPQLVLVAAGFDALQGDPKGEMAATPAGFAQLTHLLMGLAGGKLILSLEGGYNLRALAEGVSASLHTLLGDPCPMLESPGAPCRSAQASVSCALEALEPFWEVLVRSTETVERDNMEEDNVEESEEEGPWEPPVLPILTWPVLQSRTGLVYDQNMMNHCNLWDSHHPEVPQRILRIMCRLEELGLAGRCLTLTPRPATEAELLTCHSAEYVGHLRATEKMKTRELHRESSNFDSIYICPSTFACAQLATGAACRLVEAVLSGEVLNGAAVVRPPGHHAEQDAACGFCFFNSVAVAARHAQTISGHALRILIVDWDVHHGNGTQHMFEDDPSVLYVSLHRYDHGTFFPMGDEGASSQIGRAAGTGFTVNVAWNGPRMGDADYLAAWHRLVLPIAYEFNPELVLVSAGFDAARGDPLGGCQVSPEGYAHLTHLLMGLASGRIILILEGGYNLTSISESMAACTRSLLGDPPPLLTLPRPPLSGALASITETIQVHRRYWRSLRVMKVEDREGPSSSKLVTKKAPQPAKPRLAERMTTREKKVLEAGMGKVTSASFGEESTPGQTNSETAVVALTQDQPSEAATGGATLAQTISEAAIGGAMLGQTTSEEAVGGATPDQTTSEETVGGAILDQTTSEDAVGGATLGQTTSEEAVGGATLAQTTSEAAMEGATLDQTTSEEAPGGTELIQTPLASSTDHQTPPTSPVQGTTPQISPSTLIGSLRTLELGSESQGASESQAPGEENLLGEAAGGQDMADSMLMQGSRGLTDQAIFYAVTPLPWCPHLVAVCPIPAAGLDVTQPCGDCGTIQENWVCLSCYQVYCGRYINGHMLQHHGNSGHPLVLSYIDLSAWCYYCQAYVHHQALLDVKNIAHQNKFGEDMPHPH

Compound | IC50 (recombinant human HDAC6) | IC50 (recombinant human HDAC1) | half-life at 5 µM (HDAC6) | percentage of compound concentration (prodrug remaining) (HDAC6; time 0 min) | percentage of compound concentration (prodrug remaining) (HDAC6; time 30 min) | percentage of compound concentration (prodrug remaining) (HDAC6; time 60 min) | percentage of compound concentration (prodrug remaining) (HDAC6; time 120 min) | percentage of compound concentration (prodrug remaining) (HDAC6; time 240 min) | percentage of compound concentration (prodrug remaining) (HDAC6; time 360 min) | percentage of compound concentration (prodrug remaining) (HDAC6; time 480 min) | Tubulin acetylation Fold increase compared to control [1]
FC(F)c1nnc(-c2ccc(Cn3cc(-c4ccc(NC5=NCCN5)cc4)nn3)cc2)o1 [Compound 1-A] | 14 nM | > 100000 nM | – | – | – | – | – | – | – | – | –
Nc1nc2ccc(-c3cn(Cc4ccc(-c5nnc(C(F)F)o5)cc4F)nn3)cc2s1 [Compound 2-A] | – | > 100000 nM | 1.29 h | 100.00% | 73.1% | 53.6% | 31.1% | 11.1% | 3.9% | 1.3% | –
Nc1nc2ccc(-c3cn(Cc4ccc(-c5nnc(C(F)F)o5)cc4)nn3)cc2s1 [Compound 32-A] | 26 nM | > 100000 nM | – | – | – | – | – | – | – | – | 20 fold
Nc1nc2ccc(-c3cn(Cc4ccc(-c5nnc(C(F)F)o5)cc4Cl)nn3)cc2s1 [Compound 37-A] | 61 nM | > 100000 nM | 1.24 h | 100.00% | 88.1% | 69.2% | 38.4% | 12.1% | 3.7% | 1.3% | 31 fold
Nc1nc2ccc(C3CN(Cc4ccc(C(=O)NNC(=O)C(F)F)s4)N=N3)cc2s1 (stereo not shown) [Compound 48-A] | 7 nM | > 100000 nM | – | – | – | – | – | – | – | – | 45 fold

Continued, in another order:

IC50 (recombinant human HDAC6) | IC50 (recombinant human HDAC1) | half-life at 5 µM (HDAC6) | Compound | percentage of compound concentration (prodrug remaining) (HDAC6; time 0 min) | percentage of compound concentration (prodrug remaining) (HDAC6; time 30 min) | percentage of compound concentration (prodrug remaining) (HDAC6; time 60 min) | percentage of compound concentration (prodrug remaining) (HDAC6; time 120 min) | percentage of compound concentration (prodrug remaining) (HDAC6; time 240 min) | percentage of compound concentration (prodrug remaining) (HDAC6; time 360 min) | percentage of compound concentration (prodrug remaining) (HDAC6; time 480 min) | Tubulin acetylation Fold increase compared to control [1]
32 nM | > 100000 nM | – | FC(F)c1nnc(-c2ccc(Cn3cc(-c4ccccc4)nn3)nc2)o1 [Compound 13-A] | – | – | – | – | – | – | – | 6 fold
22 nM | > 100000 nM | – | Fc1ccccc1-c1cn(Cc2ccc(-c3nnc(C(F)F)o3)cn2)nn1 [Compound 14-A] | – | – | – | – | – | – | – | 7 fold
60 nM | > 100000 nM | – | FC(F)c1nnc(-c2ccc(Cn3cc(-c4ccccn4)nn3)nc2)o1 [Compound 20-A] | – | – | – | – | – | – | – | 15 fold
8 nM | > 100000 nM | – | Nc1nc2ccc(-c3cn(Cc4ccc(-c5nnc(C(F)F)o5)cn4)nn3)cc2s1 [Compound 38-A] | – | – | – | – | – | – | – | 22 fold
